In patent publication US6555692B1, “Preparation and use of bifunctional molecules having DNA sequence binding specificity” (California Institute of Technology, priority 1996, dated 2003):
pKd: −log10 of the molar value.

Experiments:
[1] = test system: 262 bp restriction fragment (EcoRI/FspI) of pBR322; test: DNA alkylation / cleavage reactions; type: biochemical
Description: Alkylation was examined on a 262 bp restriction fragment (EcoRI/FspI) of pBR322, radiolabeled on the 3′ end (10,000 cpm/reaction). Polyamide or bromodistamycin were added at appropriate concentrations. Final reaction concentrations were 10 mM sodium phosphate (pH 7.0), 100 μM sonicated calf thymus DNA. The reactions were incubated at 37° C. for 0, 1, 5, 10, 20, and 40 hours. Following incubation, the reactions were ethanol precipitated and dissolved in 10 μl 10 mM sodium phosphate buffer and heated at 90° C. for 15 minutes. Piperidine (40 μl, 1.4 M) was added and the reaction heated again for 15 minutes at 90° C. Piperidine was lyophilized off and the reactions were resuspended in 7 μl 1× TBE/80% formamide loading buffer, denatured by heating at 85° C. for 10 minutes and placed on ice. Reactions were electrophoresed on 8% polyacrylamide gels (5% cross link, 7 M urea) in 1× TBE at 2000V. Gels were dried and exposed to a storage phosphor screen (Molecular Dynamics).

5′-[…]-3′ = test: Quantitative DNase I footprinting, pJT-LTR 245 base pair fragment; type: binding, HIV-1
5′-TGCGCA-3′ = test: DNase I footprint titration, pSES9hp fragment; type: binding
Source text: The experimental target plasmid pSES9hp was constructed by hybridization of the inserts:
The plasmid pSES9hp was linearized with EcoRI and PvuII and then treated with Klenow fragment, deoxyadenosine 5′-[α-^32P]triphosphate and thymidine 5′-[α-^32P]triphosphate for 3′ labeling. Alternatively, pSES9hp was linearized with EcoRI, treated with calf alkaline phosphatase, and then 5′ labeled with T4 polynucleotide kinase and deoxyadenosine 5′- [γ-^32P]triphosphate. The 5′ labeled fragment was then digested with PvuII. The labeled fragment (3′ or 5′) was loaded onto a 5% non-denaturing polyacrylamide gel, and the desired 282 base pair band was visualized by autoradiography and isolated. Chemical sequencing reactions were performed according to published methods. (Maxam, A. M. & Gilbert, W. S. (1980). Sequencing End-Labeled DNA with Base-Specific Chemical Cleavages. Methods Enzymol. 65, 499-560; Iverson, B. L. & Dervan, P. B. (1987). Adenine-specific DNA chemical sequencing reaction. […], 7823-7830.)

5′-TGTTAAACA-3′ = test: Quantitative DNase I footprint titration; type: binding; conditions: 9 bp site
Source text: To identify a flexible linker amino acid, four polyamides of the formula ImPyPy-X-PyPyPy-Dp where X=Py, G (glycine), β, or γ, respectively, were synthesized and their equilibrium association constants determined for 5′-[…]-3′ (9 base pair) sites. (Trauger, et al. J. Am. Chem. Soc., 118, 6160 (1996).)

5′-AAAAAGACAAAAA-3′ = test: Quantitative DNase I footprint titration; type: binding; conditions: 13 bp site
Source text: At least two distinct binding modes are expected to form for the ImPyPy-X-PyPyPy-Dp polyamides described above that bind in an extended conformation. These binding modes as “slipped” and “overlapped”. In the overlapped (9 base pair) binding mode, two ImPyPy-X-PyPyPy-Dp polyamides bind directly opposite one another. The “slipped” (13 base pair) binding mode integrates the 2:1 and 1:1 polyamide-DNA binding motifs at a single site. In this binding mode, the ImPyPy moieties of two ImPyPy-X-PyPyPy-Dp polyamides bind the central 5′-AGACA-3′ sequence in a 2:1 manner as in the ImPyPy homodimer, and the PyPyPy moieties of the polyamides bind to A,T flanking sequences as in the 1:1 complexes of distamycin.

5′-TGTTA-3′ [2] = conditions: cited from earlier work; for equilibrium association constant Ka: 5′-TGTTA-3′ target site, prior art
5′-TGTTA-3′ [3] = test: Quantitative DNase I footprint titration, equilibrium association constant
5′-AACCAAGTACTTGGTA-3′ = test: Association constants, recognition of 16 base pairs; type: binding; conditions: for Specificity 5′-AACCAACTAGTTGGTA: Table 8, center mismatch; for Specificity 5′-AACCAAGTACTTGCGA: Table 8, edge mismatch; for Ka 5′-AACCAAGTACTTGGTA: Table 8, match site
Source text: Table 8 illustrates recognition of 16 Base-Pairs by ImPyPyPy-X-ImImPy-γ-PyPyPy-β-Dp.

5′-AGTACT-3′ = test: Quantitative DNase I footprint titration, 229 bp restriction fragment; type: binding
Description: (§1) ImPyPyPy-γ-ImPyPyPy-β-Dp and ImPyPyPy-γ-PyPyPyPy-β-Dp were synthesized by solid phase methods and purified by reversed phase HPLC. Equilibrium association constants for match and mismatch six base pair binding sites on a 3′^32P-labeled 229 bp restricted fragment were determined by quantitative DNase I footprint titration experiments. […] The specificity of ImPyPyPy-γ-ImPyPyPy-β-Dp and ImPyPyPy-γ-PyPyPyPy-β-Dp for their respective match sites results from very small structural changes.

5′-AGTATT-3′ = test: as above; type: binding
Description: as §1

[4] = test system: 282 bp EcoRI/PvuII restriction fragment from plasmid pSES9hp (5′-TGGCCA-3′, 5′-TGCGCA-3′, 5′-TGGGGA-3′ sites); test: Affinity cleaving, identification of binding orientation; conditions: 25 mM Tris-acetate, 10 mM NaCl, 100 μM/base pair calf thymus DNA, pH 7.0, 22° C.
Description: Affinity cleavage assays (25 mM Tris-acetate, 10 mM NaCl, 100 μM/base pair calf thymus DNA, pH 7.0 and 22° C.) were performed in order to identify the binding orientations of the EDTA analogues of the three hairpin polyamides: ImImPyPy-γ-ImImPyPy-β-Dp-EDTA, ImPyImPy-γ-ImPyImPy-β-Dp-EDTA , and ImImImIm-γ-PyPyPyPy-β-Dp-EDTA.
Depicted in FIG. 17 is a representative affinity cleaving experiment on a 3′-^32P-labeled 282 bp EcoRI/PvuII restriction fragment from plasmid pSES9hp. […] Lane 1, A reaction; lane 2, C reaction; lanes 3-5, 1 μM, 2 μM and 5 μM ImImPyPy-γ-ImImPyPy-β-Dp-EDTA (1-E); lanes 6-8, 1 μM, 2 μM and 5 μM ImPyImPy-γ-ImPyImPy-β-Dp-EDTA (2-E); lanes 9-11, 1 μM, 2 μM and 5 μM ImImImIm-γ-PyPyPyPy-β-Dp-EDTA (3-E); lane 12, intact DNA. All lanes contain 15 kcpm 3′-radiolabeled DNA, 25 mM Tris-acetate buffer (pH 7.0), 10 mM NaCl, and 100 μM/base pair calf thymus DNA. (Right) Affinity cleavage patterns for ImImPyPy-γ-ImImPyPy-β-Dp-EDTA and ImPyImPy-γ-ImPyImPy-β-Dp-EDTA at 1 μM concentration, and ImImImIm-γ-PyPyPyPy-β-Dp-EDTA at 5 μM concentration. Illustration of the 282 bp restriction fragment with the position of the sequence indicated. Bar heights are proportional to the […] at each band. Boxes represent equilibrium binding sites determined by the published model, and only sites that were quantitated by DNase I footprint titrations are boxed.

COc1c(O)c2c(c3cc(C(=O)N4CCc5c4c(O)c(OC)c4[nH]c(C(=O)N6C[C@H]7C[C@@]78C6=CC(=O)c6[nH]cc(C)c68)cc54)[nH]c13)CCN2C(N)=O [(+)CC-1065]
DNA cleavage (alkylation) ([1]; reaction time 1 hour at 37° C.): intense cleavage at 13 adenines

CN(C)CCCNC(=O)CCNC(=O)c1cc(NC(=O)c2cc(NC(=O)CCNC(=O)c3cc(NC(=O)c4nc(NC(=O)CCNC(=O)c5cc(NC(=O)c6nc(NC(=O)CCNC(=O)c7cc(NC(=O)c8nccn8C)cn7C)cn6C)cn5C)cn4C)cn3C)cn2C)cn1C [ImPy-β-ImPy-β-ImPy-β-PyPy-β-Dp]
lower affinity at other mismatch-sites on the restriction fragment (5′-[…]-3′): 10-20 fold
apparent monomeric association constant Ka (5′-[…]-3′; 16 bp target site, pH 7.0, 24° C., values above 1-2×10^10 M^−1 are a lower limit): 3.5e+10 M⁻¹
lower affinity at proximal two-base pair mismatch site (5′-[…]-3′; […]): at least 35 fold

CN(C)CCCNC(=O)CCNC(=O)c1cc(NC(=O)c2nc(NC(=O)c3cc(NC(=O)c4nc(NC(=O)CCCNC(=O)c5cc(NC(=O)c6nc(NC(=O)c7cc(NC(=O)c8nccn8C)cn7C)cn6C)cn5C)cn4C)cn3C)cn2C)cn1C [ImPyImPy-γ-ImPyImPy-β-Dp]
Ka (5′-TGCGCA-3′): 4e+07 M⁻¹
specificity (5′-TGCGCA-3′): 4 fold

CN(C)CCCNC(=O)c1cc(NC(=O)c2cc(NC(=O)c3cc(NC(=O)CCNC(=O)c4cc(NC(=O)c5cc(NC(=O)c6nccn6C)cn5C)cn4C)cn3C)cn2C)cn1C [ImPyPy-β-PyPyPy-Dp]
affinity higher than ImPyPy-Py-PyPyPy-Dp by a factor of (5′-TGTTAAACA-3′): ~10
Ka (5′-TGTTAAACA-3′; overlapped binding): 8e+08 M⁻¹
Ka higher than ImPyPy-Py-PyPyPy-Dp by a factor of (5′-AAAAAGACAAAAA-3′): ~85
association constant Ka (5′-AAAAAGACAAAAA-3′; slipped binding): 5e+09 M⁻¹

CN(C)CCCNC(=O)c1cc(NC(=O)c2cc(NC(=O)c3cc(NC(=O)CCCNC(=O)c4cc(NC(=O)c5cc(NC(=O)c6nccn6C)cn5C)cn4C)cn3C)cn2C)cn1C [ImPyPy-γ-PyPyPy-Dp, reference compound]
equilibrium association constant Ka (5′-TGTTA-3′ [2]): 8e+07 M⁻¹
increase in Ka relative to the unlinked three-ring polyamide pair ImPyPy and PyPyPy (5′-TGTTA-3′ [2]; 5′-TGTTA-3′): 300 fold
apparent first order association constant Ka (5′-TGTTA-3′ [3]; 5′-TGTTA-3′ match site): 8e+07 M⁻¹
specificity, match site relative to single base pair mismatch site (5′-TGTTA-3′ [3]; 5′-TGTTA-3′ match vs 5′-TGACA-3′ mismatch): 24 fold

CN(C)CCCNC(=O)CCNC(=O)c1cc(NC(=O)c2cc(NC(=O)c3cc(NC(=O)CCCNC(=O)c4cc(NC(=O)c5nc(NC(=O)c6nc(NC(=O)CCCCCNC(=O)c7cc(NC(=O)c8cc(NC(=O)c9cc(NC(=O)c%10nccn%10C)cn9C)cn8C)cn7C)cn6C)cn5C)cn4C)cn3C)cn2C)cn1C [ImPyPyPy-C6-ImImPy-γ-PyPyPy-β-Dp]
Specificity 5′-AACCAACTAGTTGGTA (5′-AACCAAGTACTTGGTA-3′): 1
Specificity 5′-AACCAAGTACTTGCGA (5′-AACCAAGTACTTGGTA-3′): 1
Ka 5′-AACCAAGTACTTGGTA (5′-AACCAAGTACTTGGTA-3′): 1 × 10^8

CN(C)CCCNC(=O)CCNC(=O)c1cc(NC(=O)c2cc(NC(=O)c3cc(NC(=O)CCCNC(=O)c4cc(NC(=O)c5nc(NC(=O)c6nc(NC(=O)CCNC(=O)CCNC(=O)c7cc(NC(=O)c8cc(NC(=O)c9cc(NC(=O)c%10nccn%10C)cn9C)cn8C)cn7C)cn6C)cn5C)cn4C)cn3C)cn2C)cn1C [ImPyPyPy-β-β-ImImPy-γ-PyPyPy-β-Dp]
Specificity 5′-AACCAACTAGTTGGTA (5′-AACCAAGTACTTGGTA-3′): 1
Specificity 5′-AACCAAGTACTTGCGA (5′-AACCAAGTACTTGGTA-3′): 1
Ka 5′-AACCAAGTACTTGGTA (5′-AACCAAGTACTTGGTA-3′): 3 × 10^8

CN(C)CCCNC(=O)CCNC(=O)c1cc(NC(=O)c2cc(NC(=O)c3cc(NC(=O)c4nc(NC(=O)CCCNC(=O)c5cc(NC(=O)c6cc(NC(=O)c7cc(NC(=O)c8nccn8C)cn7C)cn6C)cn5C)cn4C)cn3C)cn2C)cn1C [ImPyPyPy-γ-ImPyPyPy-β-Dp]
free energy difference (5′-AGTACT-3′; N to C—H replacement, 5′-AGTACT-3′ complex): ~2.5 kcali/mole
pKd (5′-AGTACT-3′; match site 5′-AGTACT-3′, read-out: concentration at which the match site is bound): 10.52
lower affinity for single base pair mismatch site (5′-AGTACT-3′; mismatch 5′-AGTATT-3′ vs match 5′-AGTACT-3′): ~100 fold
reduction of affinity of the polyamide•5′-AGTACT-3′ complex on replacing a single nitrogen atom with C—H (5′-AGTACT-3′; vs ImPyPyPy-γ-PyPyPyPy-β-Dp): ~75 fold

CN(C)CCCNC(=O)CCNC(=O)c1cc(NC(=O)c2cc(NC(=O)c3cc(NC(=O)c4cc(NC(=O)CCCNC(=O)c5cc(NC(=O)c6cc(NC(=O)c7cc(NC(=O)c8nccn8C)cn7C)cn6C)cn5C)cn4C)cn3C)cn2C)cn1C [ImPyPyPy-γ-PyPyPyPy-β-Dp]
loss in binding energy (5′-AGTATT-3′; C—H to N replacement, 5′-AGTATT-3′ complex): ~1.3 kcal/mol
pKd (5′-AGTATT-3′; match site 5′-AGTATT-3′, read-out: concentration at which the match site is bound): 9.52
lower affinity for single base pair mismatch site (5′-AGTATT-3′; mismatch 5′-AGTACT-3′ vs match 5′-AGTATT-3′): ~10 fold
reduction of affinity of the polyamide•5′-AGTATT-3′ complex on replacing a C—H with N (5′-AGTATT-3′; vs ImPyPyPy-γ-ImPyPyPy-β-Dp): ~10 fold

Cn1cc(NC(=O)c2cc(NC(=O)c3cc(NC(=O)CBr)cn3C)cn2C)cc1C(=O)NCCC(=N)N [N-Bromoacetyldistamycin]
DNA cleavage (alkylation) ([1]; after 10 hours at 37°): comparable amount of cleavage to (+) CC-1065 at 1 hour, but at only one adenine
DNA cleavage (alkylation) ([1]; reaction time 1 hour at 37° C.): almost no visible cleavage

Im-β-ImPy-γ-Im-β-ImPy-β-Dp [Im-βImPy-γ-Im-β-ImPy-β-Dp]
affinity (in words) (5′-TGCGCA-3′; 5′-TGCGCA-3′ sequences): subnanomolar affinities

ImImImIm-γ-PyPyPyPy-β-Dp-EDTA
binding orientation by affinity cleaving [4]: single orientation

ImImPyPy-γ-ImImPyPy-β-Dp-EDTA
binding orientation by affinity cleaving [4]: two equivalent orientations

ImPyImPy-γ-ImPyImPy-β-Dp-EDTA
binding orientation by affinity cleaving [4]: two equivalent orientations

ImPyPy-γ-PyPyPy-Dp
sequence-specificity versus single base pair mismatch sites (5′-TGTTA-3′ [2]): 30 fold

cyclo-(ImPyPy-γ-PyPyPy-γ-)
equilibrium association constant Ka (5′-TGTTA-3′ [2]): 2.9e+09 M⁻¹
increase in Ka relative to the corresponding hairpin polyamide ImPyPy-γ-PyPyPy (5′-TGTTA-3′ [2]; 5′-TGTTA-3′): 40 fold
sequence-specificity versus single base pair mismatch sites (5′-TGTTA-3′ [2]): 2 fold
